Assay results from patent publication US20250353891A1 (MEDIMMUNE LIMITED, priority 2022, published 2025).
Starred links: 1 amine or outer side, 2 acyl side, 3 side chain; linkers in the order of their positions; H or OH if unused. Non-standard residues stand in square brackets, D forms with d. Residues, ends and D or L forms follow the SMILES beside them. Groups on a side chain read outwards from the residue. *: point of attachment. C20 diacid = O=C(O)CCCCCCCCCCCCCCCCCCC(=O)*; C18 diacid = O=C(O)CCCCCCCCCCCCCCCCC(=O)*; γGlu = O=C(O)[C@H](CCC(=O)[*:2])N[*:1]; αMeF = C[C@](N)(Cc1ccccc1)C(=O)O; AEEA = NCCOCCOCC(=O)O; Aib = CC(C)(N)C(=O)O

Experiments:
[1] = biological target: human glucagon receptor (hGCGR) (Homo sapiens, UniProt P47871); assay: cAMP production (HTRF) in CHO cells expressing hGCGR; format: cell-based; parameters: expressed in transfected cells; settings: Table 7, peptides modified at position 20; cAMP in CHO hGCGR cells; geometric mean; read-out: hGluc-R EC50
Sequence of human glucagon receptor (hGCGR) (P47871 26-477): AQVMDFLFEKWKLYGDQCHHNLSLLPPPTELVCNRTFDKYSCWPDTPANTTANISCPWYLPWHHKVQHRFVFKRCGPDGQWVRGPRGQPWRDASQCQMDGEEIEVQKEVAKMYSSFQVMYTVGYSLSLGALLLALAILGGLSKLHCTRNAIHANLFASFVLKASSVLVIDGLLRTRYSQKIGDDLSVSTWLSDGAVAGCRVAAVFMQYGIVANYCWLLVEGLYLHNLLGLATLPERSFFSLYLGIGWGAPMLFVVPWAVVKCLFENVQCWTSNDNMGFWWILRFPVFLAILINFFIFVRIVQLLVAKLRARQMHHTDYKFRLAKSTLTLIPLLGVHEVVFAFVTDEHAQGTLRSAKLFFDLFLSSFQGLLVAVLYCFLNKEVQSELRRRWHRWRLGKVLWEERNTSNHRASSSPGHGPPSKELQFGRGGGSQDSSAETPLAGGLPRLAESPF
Outline: (§1)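 Cells were resuspended in assay buffer at batch-optimized density, typically 1×10^5 cells/mL for hGLP-1R and 2×10^5 cells/mL for hGCGR. After 30 min incubation at room temperature with compound, cAMP was measured by two-step HTRF. EC50 values came from 4-parameter logistic fits of % Delta F.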

[2] = biological target: human GLP-1 receptor (hGLP-1R) (Homo sapiens, UniProt P43220); assay: cAMP production (HTRF) in CHO cells expressing hGLP-1R; format: cell-based; parameters: expressed in transfected cells; settings: for EC50: Table 7, peptides modified at position 20, cAMP in CHO hGLP-1R cells, geometric mean, read-out: hGLP-1R EC50; for % Relative Potency Ratio: Table 7, % GLP-1R activity relative to GLP-1 / % GlucR activity relative to glucagon
Sequence of human GLP-1 receptor (hGLP-1R) (P43220 24-463): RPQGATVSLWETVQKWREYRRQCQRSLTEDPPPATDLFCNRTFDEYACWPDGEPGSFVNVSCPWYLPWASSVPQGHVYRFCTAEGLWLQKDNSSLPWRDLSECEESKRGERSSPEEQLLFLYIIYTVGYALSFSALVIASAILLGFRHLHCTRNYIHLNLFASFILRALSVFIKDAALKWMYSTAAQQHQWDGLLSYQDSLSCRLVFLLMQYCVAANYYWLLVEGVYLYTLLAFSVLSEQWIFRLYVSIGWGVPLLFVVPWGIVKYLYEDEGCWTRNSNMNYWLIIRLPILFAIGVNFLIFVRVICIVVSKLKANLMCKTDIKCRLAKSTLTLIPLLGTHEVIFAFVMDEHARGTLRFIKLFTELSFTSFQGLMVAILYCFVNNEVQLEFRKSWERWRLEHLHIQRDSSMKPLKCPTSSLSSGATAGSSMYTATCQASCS
Outline: as §1

How did the EC50 [1] turn out when `CC[C@H](C)[C@H](NC(=O)[C@H](Cc1c[nH]c2ccccc12)NC(=O)[C@H](CCC(N)=O)NC(=O)[C@@H](NC(=O)[C@](C)(Cc1ccccc1)NC(=O)[C@H](CC(=O)O)NC(=O)[C@H](CCCCNC(=O)COCCOCCNC(=O)COCCOCCNC(=O)CC[C@H](NC(=O)CC[C@H](NC(=O)CCCCCCCCCCCCCCCCCCC(=O)O)C(=O)O)C(=O)O)NC(=O)[C@H](C)NC(=O)[C@H](C)NC(=O)[C@H](CCCNC(=N)N)NC(=O)[C@H](CO)NC(=O)[C@H](CC(=O)O)NC(=O)[C@H](CC(C)C)NC(=O)[C@](C)(Cc1ccccc1)NC(=O)[C@H](CCCCN)NC(=O)[C@H](CO)NC(=O)[C@@H](NC(=O)[C@H](CC(=O)O)NC(=O)[C@H](CO)NC(=O)[C@@H](NC(=O)[C@](C)(Cc1ccccc1)NC(=O)[C@H](CO)NC(=O)CNC(=O)[C@H](Cc1c[nH]cn1)NC(=O)C(C)(C)NC(=O)[C@@H](N)Cc1c[nH]cn1)[C@@H](C)O)C(C)C)C(C)C)C(=O)N[C@@H](C)C(=O)N[C@@H](CC(N)=O)C(=O)N[C@H](C(N)=O)[C@@H](C)O` [Peptide 228] (H-H[Aib]HGS[αMeF]TSDVSK[αMeF]LDSRAAK([AEEA-AEEA-γGlu-γGlu-C20 diacid])D[αMeF]VQWIANT-NH2; N-terminus assumed) was run?
The EC50 was 0.177 nM.

What about the EC50 [2] of the same molecule?
Its EC50 is 0.2 nM.

What about the “% Relative Potency Ratio” value [2] of the same molecule?
Its value is 1.7.

What does the source list for `CC[C@H](C)[C@H](NC(=O)C(C)(C)NC(=O)[C@H](CCC(N)=O)NC(=O)[C@@H](NC(=O)[C@](C)(Cc1ccccc1)NC(=O)[C@H](CC(=O)O)NC(=O)[C@H](CCCCNC(=O)COCCOCCNC(=O)COCCOCCNC(=O)CC[C@H](NC(=O)CC[C@H](NC(=O)CCCCCCCCCCCCCCCCC(=O)O)C(=O)O)C(=O)O)NC(=O)[C@H](C)NC(=O)[C@H](C)NC(=O)[C@H](CCCNC(=N)N)NC(=O)[C@H](CO)NC(=O)[C@H](CC(=O)O)NC(=O)[C@H](CC(C)C)NC(=O)[C@](C)(Cc1ccccc1)NC(=O)[C@H](CCCCN)NC(=O)[C@H](CO)NC(=O)[C@@H](NC(=O)[C@H](CC(=O)O)NC(=O)[C@H](CO)NC(=O)[C@@H](NC(=O)[C@](C)(Cc1ccccc1)NC(=O)[C@H](CO)NC(=O)CNC(=O)[C@H](Cc1c[nH]cn1)NC(=O)C(C)(C)NC(=O)[C@@H](N)Cc1c[nH]cn1)[C@@H](C)O)C(C)C)C(C)C)C(=O)N[C@@H](C)C(=O)N[C@@H](CC(N)=O)C(=O)N[C@H](C(N)=O)[C@@H](C)O` [Peptide 231] (H-H[Aib]HGS[αMeF]TSDVSK[αMeF]LDSRAAK([AEEA-AEEA-γGlu-γGlu-C18 diacid])D[αMeF]VQ[Aib]IANT-NH2)?
EC50 [1]: 0.0585 nM; EC50 [2]: 0.0499 nM; % Relative Potency Ratio [2]: 2.3

Which EC50 [1] does the source give for `CC[C@H](C)[C@H](NC(=O)C(C)(C)NC(=O)[C@H](CCC(N)=O)NC(=O)[C@@H](NC(=O)[C@](C)(Cc1ccccc1)NC(=O)[C@H](CC(=O)O)NC(=O)[C@H](CCCCNC(=O)COCCOCCNC(=O)COCCOCCNC(=O)CC[C@H](NC(=O)CC[C@H](NC(=O)CCCCCCCCCCCCCCCCCCC(=O)O)C(=O)O)C(=O)O)NC(=O)[C@H](C)NC(=O)[C@H](C)NC(=O)[C@H](CCCNC(=N)N)NC(=O)[C@H](CO)NC(=O)[C@H](CC(=O)O)NC(=O)[C@H](CC(C)C)NC(=O)[C@](C)(Cc1ccccc1)NC(=O)[C@H](CCCCN)NC(=O)[C@H](CO)NC(=O)[C@@H](NC(=O)[C@H](CC(=O)O)NC(=O)[C@H](CO)NC(=O)[C@@H](NC(=O)[C@](C)(Cc1ccccc1)NC(=O)[C@H](CO)NC(=O)CNC(=O)[C@H](Cc1c[nH]cn1)NC(=O)C(C)(C)NC(=O)[C@@H](N)Cc1c[nH]cn1)[C@@H](C)O)C(C)C)C(C)C)C(=O)N[C@@H](C)C(=O)N[C@@H](CC(N)=O)C(=O)N[C@H](C(=O)NCC(=O)NCC(N)=O)[C@@H](C)O` [Peptide 232] (H-H[Aib]HGS[αMeF]TSDVSK[αMeF]LDSRAAK([AEEA-AEEA-γGlu-γGlu-C20 diacid])D[αMeF]VQ[Aib]IANTGG-NH2; N-terminus assumed) here?
The EC50 was 1.02 nM.

What about the EC50 [2] of the same molecule?
Its EC50 is 0.11 nM.

What about the “% Relative Potency Ratio” value [2] of the same molecule?
Its value is 18.4.

`CC[C@H](C)[C@H](NC(=O)C(C)(C)NC(=O)[C@H](CCC(=O)O)NC(=O)[C@@H](NC(=O)[C@](C)(Cc1ccccc1)NC(=O)[C@H](CC(=O)O)NC(=O)[C@H](CCCCNC(=O)COCCOCCNC(=O)COCCOCCNC(=O)CC[C@H](NC(=O)CC[C@H](NC(=O)CCCCCCCCCCCCCCCCCCC(=O)O)C(=O)O)C(=O)O)NC(=O)[C@H](C)NC(=O)[C@H](C)NC(=O)[C@H](CCCNC(=N)N)NC(=O)[C@H](CO)NC(=O)[C@H](CC(=O)O)NC(=O)[C@H](CC(C)C)NC(=O)[C@](C)(Cc1ccccc1)NC(=O)[C@H](CCCCN)NC(=O)[C@H](CO)NC(=O)[C@@H](NC(=O)[C@H](CC(=O)O)NC(=O)[C@H](CO)NC(=O)[C@@H](NC(=O)[C@](C)(Cc1ccccc1)NC(=O)[C@H](CO)NC(=O)CNC(=O)[C@H](Cc1c[nH]cn1)NC(=O)C(C)(C)NC(=O)[C@@H](N)Cc1c[nH]cn1)[C@@H](C)O)C(C)C)C(C)C)C(=O)N[C@@H](C)C(=O)N[C@@H](CC(N)=O)C(=O)N[C@H](C(N)=O)[C@@H](C)O` [Peptide 233] (H-H[Aib]HGS[αMeF]TSDVSK[αMeF]LDSRAAK([AEEA-AEEA-γGlu-γGlu-C20 diacid])D[αMeF]VE[Aib]IANT-NH2; N-terminus assumed) was tested. Which EC50 [1] did it give?
Its EC50 is 0.407 nM.

And the EC50 [2]?
The EC50 was 0.44 nM.

What about the “% Relative Potency Ratio” value [2] of the same molecule?
The value was 1.8.

For `CC[C@H](C)[C@H](NC(=O)C(C)(C)NC(=O)[C@H](CCC(N)=O)NC(=O)[C@@H](NC(=O)[C@H](Cc1ccccc1)NC(=O)[C@H](CC(=O)O)NC(=O)[C@H](CCCCNC(=O)COCCOCCNC(=O)COCCOCCNC(=O)CC[C@H](NC(=O)CC[C@H](NC(=O)CCCCCCCCCCCCCCCCCCC(=O)O)C(=O)O)C(=O)O)NC(=O)[C@H](C)NC(=O)[C@H](C)NC(=O)[C@H](CCCNC(=N)N)NC(=O)[C@H](CO)NC(=O)[C@H](CC(=O)O)NC(=O)[C@H](CC(C)C)NC(=O)[C@](C)(Cc1ccccc1)NC(=O)[C@H](CCCCN)NC(=O)[C@H](CO)NC(=O)[C@@H](NC(=O)[C@H](CC(=O)O)NC(=O)[C@H](CO)NC(=O)[C@@H](NC(=O)[C@](C)(Cc1ccccc1)NC(=O)[C@H](CO)NC(=O)CNC(=O)[C@H](Cc1c[nH]cn1)NC(=O)C(C)(C)NC(=O)[C@@H](N)Cc1c[nH]cn1)[C@@H](C)O)C(C)C)C(C)C)C(=O)N[C@@H](C)C(=O)N[C@@H](CC(N)=O)C(=O)N[C@H](C(=O)NCC(N)=O)[C@@H](C)O` [Peptide 234] (H-H[Aib]HGS[αMeF]TSDVSK[αMeF]LDSRAAK([AEEA-AEEA-γGlu-γGlu-C20 diacid])DFVQ[Aib]IANTG-NH2), which EC50 [1] is on record?
Its EC50 is 1.29 nM.

What about the EC50 [2] of the same molecule?
Its EC50 is 0.068 nM.

And the “% Relative Potency Ratio” value [2]?
Its value is 37.4.

For `CC[C@H](C)[C@H](NC(=O)C(C)(C)NC(=O)[C@H](CCC(N)=O)NC(=O)[C@@H](NC(=O)[C@H](Cc1ccccc1)NC(=O)[C@H](CC(=O)O)NC(=O)[C@H](CCCCNC(=O)COCCOCCNC(=O)COCCOCCNC(=O)CC[C@H](NC(=O)CC[C@H](NC(=O)CCCCCCCCCCCCCCCCC(=O)O)C(=O)O)C(=O)O)NC(=O)[C@H](C)NC(=O)[C@H](C)NC(=O)[C@H](CCCNC(=N)N)NC(=O)[C@H](CO)NC(=O)[C@H](CC(=O)O)NC(=O)[C@H](CC(C)C)NC(=O)[C@](C)(Cc1ccccc1)NC(=O)[C@H](CCCCN)NC(=O)[C@H](CO)NC(=O)[C@@H](NC(=O)[C@H](CC(=O)O)NC(=O)[C@H](CO)NC(=O)[C@@H](NC(=O)[C@](C)(Cc1ccccc1)NC(=O)[C@H](CO)NC(=O)CNC(=O)[C@H](Cc1c[nH]cn1)NC(=O)C(C)(C)NC(=O)[C@@H](N)Cc1c[nH]cn1)[C@@H](C)O)C(C)C)C(C)C)C(=O)N[C@@H](C)C(=O)N[C@@H](CC(N)=O)C(=O)N[C@H](C(=O)NCC(N)=O)[C@@H](C)O` [Peptide 236] (H-H[Aib]HGS[αMeF]TSDVSK[αMeF]LDSRAAK([AEEA-AEEA-γGlu-γGlu-C18 diacid])DFVQ[Aib]IANTG-NH2), which EC50 [1] is on record?
Its EC50 is 0.215 nM.

What about the EC50 [2] of the same molecule?
Its EC50 is 0.0221 nM.

And the “% Relative Potency Ratio” value [2]?
Its value is 19.2.
